Results: US4073883A, “Method for treatment of impaired hearing” (priority 1976, dated 1978)

Legend:
[1] = system: rats of Wistar strain; assay: Acute toxicity test in rats (single dose, 7 days observation); type: in vivo; conditions: for Maximum dose (no case of deaths): 7 days
Description: (§1) In order to evaluate the acute toxicity of a single high dose administration of Coenzyme Q10, male and female rats of Wistar strain and male and female mice of ICR-JCL strain were used, and oral, intramuscular, subcutaneous, and intravenous administrations were studied. For the oral administration of Coenzyme Q10, gum Arabic suspension was used. For the intramuscular, subcutaneous and intravenous administrations, Coenzyme Q10 was used as its solution in a nonionic surfactant, Nikkol HCO-60. Nikkol HCO-60 is a trade name of a non-ionic surfactant comprised of hydrogenated castor oil/polyoxyethylene-60 mole ether available from Nikko Chemicals, Co. Ltd., Japan.
(§2) Observations were carried out for 7 days by using six males and six females for each dose group.

[2] = system: rats of Wistar strain; assay: Subacute oral toxicity test in rats (5 weeks); type: in vivo
Description: Coenzyme Q10 was compulsorily and orally administered every day for 5 weeks to each group consisting of 10 male rats and 10 female rats of Wistar strain. The dose was 40, 200, and 1000 mg/Kg/day, respectively. Coenzyme Q10 was used in the form of gum Arabic suspension, while the solution containing gum Arabic alone was used as the control group. Collection of blood and urine samples and autopsies were carried out 5 weeks after the initiation of administration.

[3] = system: mice; assay: Teratogenesis test in mice; type: in vivo; conditions: 6, 60 and 600 mg/Kg/day
[4] = system: rats of Wistar strain; assay: Chronic oral toxicity test in rats (26 weeks); type: in vivo
Description: Coenzyme Q10 was compulsorily and orally administered to each group consisting of 10 male rats and 10 female rats of Wistar strain for 26 consecutive weeks in a ratio of 6 days a week. The dose was 6, 60 and 600 mg/Kg/day, respectively. Coenzyme Q10 was used in the form of gum Arabic suspension, whereas the solution containing gum Arabic alone is used as the control group. Collection of blood and urine samples and autopsies were carried out 26 weeks after the administration.

[5] = system: rabbits; assay: Subacute oral toxicity test in rabbits (23 days); type: in vivo
Description: Coenzyme Q10 was compulsorily and orally administered every day for 23 days to each group consisting of 6 male rabbits and 5 female rabbits. The dose was 6, 60 and 600 mg/Kg/day, respectively. Coenzyme Q10 was used in the form of gum Arabic suspension, whereas the solution containing gum Arabic alone was used as the control group. On the 24th day, blood samples were collected from all the animals, and 3 males and 2 females from each group were then selectively autopsied.

[6] = system: patients having impaired hearing caused by administration of a drug; assay: Clinical test on the administration of Coenzyme Q10 for impaired hearing (audiometry); type: in vivo, human
Description: 30 Mg/day of Coenzyme Q10 was administered perorally three times a day after meal. Duration of administration differed with patients in the range of from two weeks to four months.
Coenzyme Q10 was administered to 9 patients having impaired hearing caused by administration of a drug (an antibiotic called poison against hearing organs). 8 of 9 patients were being administered with some poison against hearing organs at the time of the first medical examination of otorhinology. The remaining one patient was given streptomycin more than 10 years before then. It was pointed out that labyrinthine disorder was observed already and the administration of the poisons against hearing organs was discontinued in 5 of the 8 cases. In the remaining 3 cases, the treatment of the diseases with the poisons against hearing organs was continued with administration of Coenzyme Q10.
In many cases, a combination of drugs such as combination of streptomycin (SM) with kanamycin (KM), kanendomycin (KDM) or gentamycin (GM) had been used.
Determination of hearing acuity threshold value in air conduction and bone conduction and recruitment test were effected using an audiometer in a sound-proof chamber.
The sum of the air conduction threshold value was determined in terms of decibel units and the values before and after the administration of Coenzyme Q10 were compared with each other.
Air condition region values at 125 Hz, 250 Hz, 1 KHz, 2 KHz, 4 KHz and 8 KHz in audiogram were added together to obtain a value called the total region value at that time. In case the difference in the value between before and after the administration of Coenzyme Q10 is more than ± 35 db, it was judged to be improved or worsened and in case the difference is within 35 db, it was judged to be unchanged. In case a threshold value of a certain frequency is scaled out, a value of the maximum output at that frequency plus 5 db. was employed.

[7] = system: mice of ICR-JCL strain; assay: Acute toxicity test in mice (single dose, 7 days observation); type: in vivo; conditions: for Maximum dose (no case of deaths): 7 days
Description: as §1, §2

[8] = system: rats; assay: Teratogenesis test in rats; type: in vivo; conditions: 6, 60 and 600 mg/Kg/day
[9] = intramuscular, in Nikkol HCO-60, single dose
[10] = intravenous, in Nikkol HCO-60, single dose
[11] = oral, gum Arabic suspension, single dose
[12] = relative to maximum doses of Table 1
[13] = subcutaneous, in Nikkol HCO-60, single dose
[14] = attributed to spontaneous pneumonia and aspiration pneumonia due to an erroneous administration
[15] = 6, 60, 600 mg/Kg/day oral, 23 days

## COC1=C(OC)C(=O)C(C/C=C(\C)CC/C=C(\C)CC/C=C(\C)CC/C=C(\C)CC/C=C(\C)CC/C=C(\C)CC/C=C(\C)CC/C=C(\C)CC/C=C(\C)CCC=C(C)C)=C(C)C1=O [Coenzyme Q10]
[1]; acute, overall
  toxicity (overall, acute): extremely low
[1]; [9]
  Maximum dose (no case of deaths): 500 mg/kg
[1]; [10]
  Maximum dose (no case of deaths): 250 mg/kg
[1]; maximum dose in each route
  deaths: no case of deaths
[1]; [11]
  Maximum dose (no case of deaths): 4000 mg/kg
[1]; [12]
  LD50: far higher than the maximum dose
[1]; [13]
  Maximum dose (no case of deaths): 500 mg/kg
[2]; 40, 200, 1000 mg/Kg/day oral, 5 weeks
  general condition and body weight vs control: no difference
[2]; attributed to spontaneous pneumonia and aspiration pneumonia due to an error of administration
  dead animals during the experiment: 4 animals
[2]; subacute oral, 5 weeks, overall
  toxicity seemingly due to the administration: there was not recognized the toxicity
[3]
  adverse effects in mothers, fetuses, and newborns: no adverse effects
[4]; 6, 60, 600 mg/Kg/day oral, 26 weeks
  body weight vs control: increased as same as that of the control group
[4]; 6, 60, 600 mg/Kg/day oral, 26 weeks, 6 days a week
  general condition vs control: no difference
[4]; 26 weeks
  biochemical tests of blood and urine vs control: No significant changes were recognized
  weight of organs: no significant increase and decrease
[4]; [14]
  deaths, females: 3 females
  deaths, males: 11 males
[4]; chronic oral, 26 weeks, overall
  toxicity: no toxicity was observed
[4]; hemoxylin.Eosine staining and liver fat staining, 26 weeks
  macroscopical and histological observation vs control: abnormalities were not recognized
[4]; not dose related, within the extent of physiological fluctuations
  leukocytal percentages: some increase and decrease
[5]; [15]
  general condition and increase of body weight vs control: no difference
  weight of each organ: no effect
[5]; 7th, 14th, and 24th days after the administration
  electron-microscopic observation of liver: there were not recognized abnormal findings
[5]; subacute oral, 23 days, overall
  findings suggesting toxicity: there were not recognized the findings
[6]; overall conclusion
  effectiveness as a medicament for treating impaired hearing: effective as a medicament for treating impaired hearing
[6]; with Coenzyme Q10, of 18 ears
  ears improved (number of 18 ears): 13 ears
  ears improved (percent): 72%
  ears unchanged (number of 18 ears): 5 ears
  ears unchanged (percent): 28%
  worsening: no worsening being observed
[7]; acute, overall
  toxicity (overall, acute): extremely low
[7]; [9]
  Maximum dose (no case of deaths): 500 mg/kg
[7]; [10]
  Maximum dose (no case of deaths): 250 mg/kg
[7]; maximum dose in each route
  deaths: no case of deaths
[7]; [11]
  Maximum dose (no case of deaths): 4000 mg/kg
[7]; [12]
  LD50: far higher than the maximum dose
[7]; [13]
  Maximum dose (no case of deaths): 500 mg/kg
[8]
  adverse effects in mothers, fetuses, and newborns: no adverse effects
